Paper PMC7321210, “Synthesis and Studies of the Inhibitory Effect of Hydroxylated Phenylpropanoids and Biphenols Derivatives on Tyrosinase and Laccase Enzymes” (Molecules, 2020)
“Also recorded” adds a separate entry of the source. Where two headings read alike, the source gives them in different places.

What was measured:
[1] = tested on: mushroom tyrosinase; test: Spectrophotometric (UV-Vis) detection of tyrosinase inhibitory activity; format: biochemical; conditions: for tyrosinase inhibition in words, tyrosine versus dopamine as substrate: UV-Vis, absorbance at 311 or 472 nm, Figure 3
Method: Kinetic assays were carried out by measuring the appearance of the product of either tyrosine or dopamine oxidation in the reaction medium at 311 and 472 nm, respectively, in a Shimadzu UV-2501 spectrophotometer (Shimadzu, Kyoto, Japan) equipped with the UV-Probe software, using a tandem quartz cuvette (Hellma, Milan, Italy) with a 2 × 4.375-mm path length [1, 2, 51]. Briefly, one side of the dual chamber cuvette was filled with 1000 µl of mushroom tyrosinase solution in 50 mM phosphate buffer, pH 6.8, 166 Units/mL using tyrosine as substrate or a 16.6 Units/mL when dopamine was used as substrate. The other chamber was loaded with 980 µL of substrate solution (180 µM tyrosine or 18 µM dopamine) in 20 mM phosphate buffer (pH 6.8) added of either 20 µL of DMSO (control) or 20 µL of a 2 mM (0.2 mM in dopamine experiments) solution of tested inhibitors in DMSO. A background spectrum in the 250–700 nm range was acquired with a 2.0 nm slit and fast speed before starting the reaction. Thereafter, the solutions in the two chambers were mixed by inversion and the UV-Vis spectra were acquired at increasing time intervals. Spectra were recorded at 311 or 472 nm in the presence of the inhibitor before mixing, and after either 24 or 10 min, using tyrosine or dopamine as a substrate, respectively. Data processing was performed with UV Probe and OriginPro 2019 (v. 9.60) softwares.
The mushroom tyrosinase was used as purchased without further purification. All solutions (tyrosinase, substrates and inhibitors) were filtered through a 0.45-μm syringe filter, aliquoted in Eppendorf tubes, and stored in freezer. The relative concentration was determined spectrophotometrically (εtyrosine 274.6 nm = 1420 M^−1·cm^−1; εdopamine at 280 nm = 2670 M^−1·cm^−1; εtyrosinase at 280 nm = 1426 M^−1·cm^−1).
Tyrosine was dissolved in 50 mM phosphate buffer, pH 6.8, final concentration 80 µM and with the added inhibitor (final concentration 20 µM) and tyrosinase (83 U/mL). The absorbance values were determined after 24 min of incubation. In the presence of dopamine, experiments were performed using 10-fold diluted solutions, and the absorbance values were determined after 10 min of incubation.

[2] = tested on: Tenebrio molitor; test: Insecticidal properties on mealworm larvae; format: in vivo; conditions: for pest or weed control at 6400 µg/mL: Tenebrio molitor, topical, 120 h, read-out: Mortality% (Mean ± SD)
Method: Late instar larvae of Tenebrio molitor from a twenty-year-old insect culture at the Research Institute on Terrestrial Ecosystems (National Research Council, Sassari, Italy) were used in the experiments. The species was reared on bran flour, with the integration of fresh vegetables, at 25 °C, 65% relative humidity and 16:8 hours light/darkness.
One hundred medium instar larvae were isolated in a petri dishes (diam. 50 mm). They were then immersed for three seconds in 2.5 mL of an acetone solution (concentration 6.4 mg/mL w:v) of one of the fourteen compounds listed in Table 3. In addition, a treatment with the commercial formulation Dimilin (WP, 25% a.i. diflubenzuron) (acetone solution, 25.6 mg/mL w:v) and a negative control (no treatment) were tested.
After treatment, the larvae were subdivided into five 20-specimen groups and reared for five days in a small PVC box (150 L × 120 W × 50 H mm) with the same feed and conditions as standard rearing. Mortality was recorded daily.
The statistical analysis was conducted with the R software (R Development Core Team 2016). Mortality data, expressed as a percentage, were arcsin(√x)-transformed to satisfy assumptions of normality. ANOVA was performed by the Duncan test for mean separation.

[3] = target: T1, tyrosinase (Agaricus bisporus, UniProt C7FF04); conditions: cited from earlier work; for tyrosinase inhibitory activity compared with biphenol 1: spectrophotometric and electrochemical assays
T1 sequence (C7FF04 2-392): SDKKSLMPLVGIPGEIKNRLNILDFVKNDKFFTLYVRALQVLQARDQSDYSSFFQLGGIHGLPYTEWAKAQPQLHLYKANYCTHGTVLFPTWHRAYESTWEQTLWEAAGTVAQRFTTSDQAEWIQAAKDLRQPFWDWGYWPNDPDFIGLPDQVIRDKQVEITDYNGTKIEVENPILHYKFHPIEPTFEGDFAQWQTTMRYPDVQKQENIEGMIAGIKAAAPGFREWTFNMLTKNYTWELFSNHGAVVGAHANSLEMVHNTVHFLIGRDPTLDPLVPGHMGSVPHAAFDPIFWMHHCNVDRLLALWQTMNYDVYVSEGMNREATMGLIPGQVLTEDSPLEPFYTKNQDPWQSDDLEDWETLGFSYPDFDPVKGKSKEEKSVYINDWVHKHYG

[4] = tested on: laccase; test: Laccase amperometric biosensor: IC50 and type of inhibition; format: biochemical; conditions: for VMAX, substrate + inhibitor, LAC: dopamine calibration 0-140 mM after inhibitor exposure, n=4 biosensors; for IC50: enzyme immobilized on biosensor, dopamine 50 µM, PBS pH 6.0; for Type of Inhibition Laccase: Lineweaver-Burk plot, biosensor exposed 30 min to twice the lowest inhibiting concentration
Method: (§1) Inhibition types and IC50 were assessed by means of carbon-based amperometric biosensors [61, 62, 63, 64, 65], that are described in the Supplementary Materials. During the experiments carried out to determine the IC50 values, the lowest inhibitory concentration of each compound was also evaluated.
(§2) To verify the inhibition types, the following protocol was used. An initial calibration with dopamine, ranging between 0 and 140 mM, was performed in order to ascertain the values of VMAX and KM. Another calibration with the same protocol was performed after having exposed the biosensors to twice the lowest inhibiting concentration of each inhibitor, in order to ensure the safe inhibition of enzymatic activity. The biosensors were exposed to the inhibitor for 30 min and after having reached a stabile baseline, a calibration with dopamine, ranging between 0 and 140 mM, was performed and the value of VMAX and KM were calculated. The variations of both VMAX and KM were then analyzed by using the Lineweaver-Burk plot in order to identify the type of inhibition induced by the tested compound. The statistical difference in VMAX and KM, before exposing the biosensors to the inhibitor and then afterwards, was calculated by means of a paired t-test (p < 0.05).
(§3) The biosensors were prepared starting from a Teflon™-insulated silver wire (30 mm in length; Ø = 125 μm),
(§4) Briefly, 1 mm of the silver wire was exposed and then introduced into a silica
(§5) capillary cylinder (10 mm in length; I.D. Ø = 180 μm, Polymicro Technologies, Phoenix, AZ, USA) partly
(§6) packed with graphite-loaded (55% w/w) epoxy resin. By mixing 850 mg of graphite with 500 mg of Araldite-
(§7) M and 200 mg of hardener, a preliminary disc electrode of carbon-composite was fabricated (Ø = 180 μm; area:
(§8) 2.5 × 10−4 cm2) by filling the silica capillary tubing with the mixture. The silver wire assured a good electrical
(§9) contact. After 24 h at 40 °C, the electrode surface was cleaned using a high-speed drill (Dremel® 300) equipped
(§10) with an aluminum oxide grinding wheel. On top of the electrode surface a 1 µl of Tyrosinase or Laccase
(§11) solution was deposited. After the complete evaporation of water at room temperature, the biosensor was
(§12) quickly dipped in the polyurethane solution in order to entrap the enzyme on the electrode surface, and after
(§13) the complete evaporation of the solvent biosensors were put to stabilize in PBS pH=6.0 overnight.
(§14) The electrochemical measurements were performed at room temperature in a classical three-electrode
(§15) electrochemical cell consisting of four biosensors as working electrodes, a reference electrode (Ag/AgCl in
(§16) Constant potential amperometry (CPA) was used for in-vitro calibrations and for inhibition evaluation
(§17) experiments by applying a constant potential of -50 mV against an Ag/AgCl reference electrode, by means of
(§18) a four-channel potentiostat (eDAQ Quadstat, e- Corder 410, eDAQ Europe, Poland) and the software Chart (v
(§19) 5.5, eDAQ Europe, Poland). Thus, once the stabilization of the baseline of biosensors was reached, increasing
(§20) volumes of a stock solution of dopamine 1 M were added in order to obtain different concentrations ranging

[5] = tested on: PC12 cells; test: Viability of PC12 cells (MTT assay); format: cell-based, rat; conditions: for Toxic Concentration: cell viability < 80%, screening from 1 to 40 μM, 24 h; for toxicity to cells in words: significant (p < 0.05) decrease in viability vs control, from 5 μM up to 40 μM
Method: Initially, the inhibitor concentrations on PC12 cells, i.e., a rat pheochromocytoma-derived cell line, were screened to assess the possible cytotoxicity of the molecules under study [55].
(§21) 1.4 Viability and oxidative stress assays
(§22) PC12 cells, rat pheochromocytoma-derived cell line (ATCCCRL-1721) (passages 12–25) were maintained at 37
(§23) °C humidified air containing 5% CO2/95% atmospheric air and cultured in a 60 mm plastic culture plates with
(§24) Dulbecco’s modified Eagle’s medium supplemented with 10% horse serum, 5% fetal bovine serum and 1% of
(§25) penicillin/streptomycin. PC12 cells were treated for 24 h with the different compounds at different
concentrations ranging from 1 to 40 μM, to evaluate their eventual toxicity.
(§26) For all treatments cell viability was measured by means of MTT assay, as explained in
the following paragraph [17].
(§27) At the end of the exposure time of each experiment, the cell viability was assessed by means of MTT (3-(4,5-
(§28) dimethyl-thiazol-2-yl)-2,5-diphenyltetrazoliumbromide) assay. For this purpose, 1 mg/mL of MTT was added
(§29) to each sample and incubated for 4 h at 37 °C. Only viable cells are able to convert the soluble dye MTT into
(§30) the insoluble formazan crystals. After the incubation the MTT supernatant solution was removed, the cells
(§31) were washed in phosphate-buffered saline (PBS) and centrifuged while the pellet was dissolved in 2 mL of
(§32) isopropanol. After centrifugation of the solution at 4,000 rpm for 5 min, the absorbance for each sample was
(§33) assessed by means of a Bauty Diagnostic Microplate Reader at 578 nm. All experiments were performed in 24-
(§34) well plates (1 × 10^5 cells/mL/well) and repeated in triplicate.

[6] = tested on: PC12 cells; test: Protection of PC12 cells against H2O2-induced oxidative stress (MTT); format: cell-based, rat; conditions: for change of cell viability versus H2O2 alone, in words: co-treatment with 100 μM H2O2, compounds 1 up to 20 μM; for H2O2 Damage Protection: concentration with significant increase in viability vs H2O2, co-treatment with 100 μM H2O2, n.p.: no protection
Method: as §21, §22, §23, §24, §25
concentrations ranging from 1 to 40 μM, to evaluate their eventual toxicity. Then, in order to assess the
eventual compounds’ protection properties, PC12 cell treated with hydrogen peroxide (100μM) in association
with increasing concentration of the above-mentioned molecules, from 1 up to 20 μM.
as §26, §27, §28, §29, §30, §31, §32, §33, §34

[7] = target: T1, tyrosinase; test: Tyrosinase amperometric biosensor: IC50 and type of inhibition; format: biochemical; conditions: for Type of Inhibition Tyrosinase: Lineweaver-Burk plot, biosensor exposed 30 min to twice the lowest inhibiting concentration; for VMAX, substrate + inhibitor, TYR: dopamine calibration 0-140 mM after inhibitor exposure, n=4 biosensors;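 on all read-outs here: Carbon-composite amperometric tyrosinase biosensors with polyurethane-entrapped enzyme, calibrated in a three-electrode cell against Ag/AgCl at room temperature, before versus after inhibitor exposure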
Method: as §1, §2, §3, §4, §5, §6, §7, §8, §9, §10, §11, §12, §13, §14, §15, §16, §17, §18, §19, §20

[8] = larvae immersed three seconds in 2.5 mL acetone solution 6.4 mg/mL, reared five days, DFB as Dimilin WP 25% a.i., 25.6 mg/mL

Compound | tyrosinase inhibition in words, tyrosine versus dopamine as substrate [1] | pest or weed control at 6400 µg/mL [2, 8] [%] | VMAX, substrate + inhibitor, LAC [4] [nA] | IC50 [4] [nM] | Toxic Concentration [5] | Type of Inhibition Tyrosinase [7] | VMAX, substrate + inhibitor, TYR [7] [nA] | Type of Inhibition Laccase [4] | further results
Oc1ccc(-c2ccc(O)cc2)cc1 [Compound 1, 4,4′-dihydroxy-biphenyl, reference compound] | predominant inhibition of tyrosine oxidation | 2 ± 2.74 | – | – | – | – | – | – | type of tyrosinase inhibition [3]: classical reversible competitive inhibitor
Oc1ccc(-c2ccc(O)c(O)c2)cc1O [Compound 2] | – | 4 ± 5.48 | – | – | – | – | – | – | tyrosinase inhibitory activity compared with biphenol 1 [3]: higher tyrosinase inhibitory activity than that of biphenol 1
C=CCc1cc(-c2ccc(O)c(CC=C)c2)ccc1O [Compound 3] | – | 3 ± 2.74 | – | – | – | – | – | – | tyrosinase inhibitory activity compared with biphenol 1 [3]: higher tyrosinase inhibitory activity than that of biphenol 1
Oc1ccccc1-c1ccccc1O [Compound 4] | – | – | – | – | – | – | – | – | pest or weed control at 6400 µg/mL [2]: 3 ± 4.47%
Oc1cccc(O)c1-c1c(O)cccc1O [Compound 5] | – | 16 ± 9.62 | – | – | – | – | – | – | tyrosinase inhibitory activity compared with biphenol 1 [3]: higher tyrosinase inhibitory activity than that of biphenol 1
COc1cc(O)cc(-c2cc(O)cc(OC)c2OC)c1OC [Compound 6] | – | 1 ± 2.24 | – | – | – | – | – | – | tyrosinase inhibitory activity compared with biphenol 1 [3]: higher tyrosinase inhibitory activity than that of biphenol 1
COc1cc(C=CC(C)=O)ccc1O [Compound 8] | strongly inhibited the oxidation of dopamine compared to that of tyrosine; also recorded: selectivity towards the diphenolasic phase | 10 ± 7.07 | 78.7±8.8 | 218 | 40 µM | – | – | – | change of cell viability versus H2O2 alone, in words [6]: significant decrease (p < 0.05 vs H2O2) in cells viability at all concentrations tested; H2O2 Damage Protection [6]: n.p.
CC(=O)CCc1ccc(O)c(O)c1 [Compound 9] | strongly inhibited the oxidation of dopamine compared to that of tyrosine; also recorded: selectivity towards the diphenolasic phase | 4 ± 6.51 | 90.5±7.4 | 2240 | >10 µM | competitively; also recorded: competitive | 183.2±11.1 | competitively; also recorded: competitive | change of cell viability versus H2O2 alone, in words [6]: significant decrease (p < 0.05 vs H2O2) at a concentration of 20 μM; H2O2 Damage Protection [6]: n.p.
COc1cc(/C=C/C(=O)c2ccc(OC)c(OC)c2)ccc1O [Compound 11] | predominant inhibition of tyrosine oxidation | 4 ± 2.24 | 91.0±9.2 | 62 | >10 µM | competitive | 33.0±1.1 | mixed | toxicity to cells in words [5]: toxic to cells
COc1cc(C(=O)/C=C/c2ccc(OC)c(OC)c2)ccc1O [Compound 12] | predominant inhibition of tyrosine oxidation | 0 | 49.5±6.1 | 1040 | >1 µM | noncompetitive | 63.0±1.962 | competitive | toxicity to cells in words [5]: toxic to cells
COc1cc(/C=C/C(=O)C[C@@H]2O[C@H](CO)[C@@H](O)[C@H](O)[C@H]2O)ccc1O [Compound 13] | predominant inhibition of tyrosine oxidation | – | 114.4±9.5 | – | >20 µM | uncompetitive or mixed; also recorded: uncompetitive | 37.3 ±4.0 | competitive | change of cell viability versus H2O2 alone, in words [6]: significant decrease (p < 0.05 vs H2O2) at a concentration of 20 μM; H2O2 Damage Protection [6]: n.p.
COc1cc(/C=C/C(=O)c2cc(OC)c(OC)c(-c3cc(C(=O)/C=C/c4ccc(O)c(OC)c4)cc(OC)c3OC)c2)ccc1O [Compound 14] | predominant inhibition of tyrosine oxidation | 0 | 110.9±2.4 | – | >5 µM | mixed | 48.8±4.67 | mixed | toxicity to cells in words [5]: toxic to cells
COc1cc(C(=O)/C=C/c2cc(OC)c(OC)c(-c3cc(/C=C/C(=O)c4ccc(O)c(OC)c4)cc(OC)c3OC)c2)ccc1O [Compound 15] | predominant inhibition of tyrosine oxidation | 0 | 93.8±2.9 | 209 | >5 µM | competitively; also recorded: competitive | 54.3±2.6 | competitively; also recorded: competitive | toxicity to cells in words [5]: toxic to cells
COc1ccc(O)c(C(=O)/C=C/c2cc(OC)c(OC)c(-c3cc(/C=C/C(=O)c4cc(OC)ccc4O)cc(OC)c3OC)c2)c1 [Compound 16] | – | – | 139.9±6.4 | 987 | >5 µM | competitively; also recorded: competitive | 22.2±0.6 | competitively; also recorded: competitive | % inhibition of tyrosinase ([1]; comparable with both substrates, tyrosine 80 µM, inhibitor 20 µM, 24 min, dopamine 10-fold diluted solutions, 10 min): about 70%; toxicity to cells in words [5]: toxic to cells
CCOC(=O)/C=C/c1cc(OC)c(O)c(-c2cc(/C=C/C(=O)OCC)cc(OC)c2O)c1 [Compound 17] | strongly inhibited the oxidation of dopamine compared to that of tyrosine; also recorded: selectivity towards the diphenolasic phase | – | 96.5±8.3 | 184 | none | uncompetitive or mixed; also recorded: mixed | 73.7±26 | competitive | H2O2 Damage Protection [6]: n.p.
OC[C@H]1O[C@@H](Oc2ccc(-c3ccc(O)cc3)cc2)[C@H](O)[C@@H](O)[C@@H]1O [Compound 18, (2S,3R,4S,5S,6R)-2-((4’-hydroxy-[1,1’-biphenyl]-4-yl)oxy)-6-(hydroxymethyl)tetrahydro-2H-pyran-3,4,5-triol] | predominant inhibition of tyrosine oxidation | – | 98.1±3.3 | 2620 | none | competitively; also recorded: competitive | 145.8±17.8 | competitively; also recorded: competitive | change of cell viability versus H2O2 alone, in words [6]: significant decrease (p < 0.05 vs H2O2) in cells viability at all concentrations tested; H2O2 Damage Protection [6]: n.p.; melting point: 260 to 262 °C
CC(C)=CCCC(C)(O)/C=C/c1cc(-c2ccc(O)c(/C=C/C(C)(O)CCC=C(C)C)c2)ccc1O (centres unmarked) [Compound 20, 3,3’-bis((E)-3-hydroxy-3,7-dimethylocta-1,6-dien-1-yl)-[1,1’-biphenyl]-4,4’-diol] | strongly inhibited the oxidation of dopamine compared to that of tyrosine; also recorded: selectivity towards the diphenolasic phase | ~65 | 151.6±12.1 | 118 | – | competitively; also recorded: competitive | 77.4±4.3 | competitively; also recorded: competitive | insecticidal activity in words ([2]; mealworm larvae, compared with DFB): some insecticidal activity
O=C(NC(=O)c1c(F)cccc1F)Nc1ccc(Cl)cc1 [DFB, N-[(4-chlorophenyl)carbamoyl]-2,6-difluorobenzamide, reference compound] | – | – | – | – | – | – | – | – | pest or weed control at 6400 µg/mL [2]: 97 ± 4.47%
